“Also recorded” adds a separate entry of the source.
Assay: UC781 drug stability in compounded polyurethane after extrusion and accelerated storage
Type: physicochemical
Conditions: 4-5 week, 60° C., with and without additives
Description: The drug stability in compounded lot #1100032 was also studied after extrusion and under accelerated storage conditions, with and without various antioxidants (Table 3).

CC(C)=CCOc1cc(NC(=S)c2ccoc2C)ccc1Cl [UC781]
UC781 stability in compounded lot #1100032: Irganox is incompatible with UC781; also recorded: best stability with BHT, EDTA or without any additives
